Source: US11685746B2, “Heteroaryl compounds for treating Huntington's disease” (PTC THERAPEUTICS, INC., priority 2018, dated 2023)

These compounds were tested on Endogenous Huntingtin Protein (assay: Endogenous Huntingtin Protein Assay (MSD plates, MW1 or MAB2166 capture antibody)). Details: Table 1.
Type: cell-based
Outline: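 Endogenous huntingtin was captured overnight at 4° C on wells coated with 1 μg/mL MW1 (polyglutamine-specific) or MAB2166. Detection used rabbit #5656S and then goat anti-rabbit SULFO-TAG, both at 0.25 μg/mL and 1 h at room temperature. Plates were imaged on the MSD system in read buffer T.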

| Compound | IC50 [nM] |
| --- | --- |
| CC1(C)CC(Oc2nc3sc(-c4ncc(-c5cn[nH]c5)c5cc[nH]c45)nc3s2)CCN1 (stereo not shown) [Compound 77, 7-{5-[(2,2-dimethylpiperidin-4-yl)oxy][1,3]thiazolo[5,4-d][1,3]thiazol-2-yl}-4-(1H-pyrazol-4-yl)-1H-pyrrolo[2,3-c]pyridine] | ≤ 100 |
| C[C@@H]1C[C@@H](Oc2nc3sc(-c4ccc(-c5cn[nH]c5)c5cn[nH]c45)nc3s2)CCN1 [Compound 78, 7-(5-{[(2R,4S)-2-methylpiperidin-4-yl]oxy}[1,3]thiazolo[5,4-d][1,3]thiazol-2-yl)-4-(1H-pyrazol-4-yl)-1H-indazole] | ≤ 100 |
| CN(c1nc2sc(-c3ncc(-c4cn[nH]c4)nn3)nc2s1)[C@H]1C[C@]2(C)CC[C@](C)(C1)N2 [Compound 79, N-[(1R,3s,5S)-1,5-dimethyl-8-azabicyclo[3.2.1]octan-3-yl]-N-methyl-5-[6-(1H-pyrazol-4-yl)-1,2,4-triazin-3-yl][1,3]thiazolo[5,4-d][1,3]thiazol-2-amine] | ≤ 100 |
| C[C@H]1C[C@H](N(C)c2nc3sc(-c4ncc(-n5ccnc5)c5cc[nH]c45)nc3s2)CCN1 [Compound 80, 5-[4-(1H-imidazol-1-yl)-1H-pyrrolo[2,3-c]pyridin-7-yl]-N-methyl-H-[(2S,4R)-2-methylpiperidin-4-yl][1,3]thiazolo[5,4-d][1,3]thiazol-2-amine] | ≤ 100 |
| C[C@H]1C[C@H](Oc2nc3sc(-c4ncc(-c5nnn(C)n5)c5cc[nH]c45)nc3s2)CCN1 [Compound 81, 7-(5-{[(2S,4R)-2-methylpiperidin-4-yl]oxy}[1,3]thiazolo[5,4-d][1,3]thiazol-2-yl)-4-(2-methyl-2H-tetrazol-5-yl)-1H-pyrrolo[2,3-c]pyridine] | ≤ 100 |
| C[C@@H]1C[C@@H](Oc2nc3sc(-c4ccc(-c5cn[nH]c5)c5cc[nH]c45)nc3s2)CCN1 [Compound 82, 7-(5-{[(2R,4S)-2-methylpiperidin-4-yl]oxy}[1,3]thiazolo[5,4-d][1,3]thiazol-2-yl)-4-(1H-pyrazol-4-yl)-1H-indole] | ≤ 100 |
| C[C@@H]1C[C@@H](Oc2nc3sc(-c4ncc(-c5cn[nH]c5)c5nc[nH]c45)nc3s2)CCN1 [Compound 83, 4-(5-{[(2R,4S)-2-methylpiperidin-4-yl]oxy}[1,3]thiazolo[5,4-d][1,3]thiazol-2-yl)-7-(1H-pyrazol-4-yl)-3H-imidazo[4,5-c]pyridine] | ≤ 100 |
| C[C@H]1C[C@H](Oc2nc3sc(-c4ncc(-c5cn[nH]c5)c5cc[nH]c45)nc3s2)CCN1C [Compound 84, 7-(5-{[(2S,4R)-1,2-dimethylpiperidin-4-yl]oxy}[1,3]thiazolo[5,4-d][1,3]thiazol-2-yl)-4-(1H-pyrazol-4-yl)-1H-pyrrolo[2,3-c]pyridine] | ≤ 100 |
| C[C@@H]1C[C@@H](N(C)c2nc3sc(-c4ncc(-c5cn[nH]c5)c5cc[nH]c45)nc3s2)CCN1 [Compound 85, N-methyl-N-[(2R,4S)-2-methylpiperidin-4-yl]-5-[4-(1H-pyrazol-4-yl)-1H-pyrrolo[2,3-c]pyridin-7-yl][1,3]thiazolo[5,4-d][1,3]thiazol-2-amine] | ≤ 100 |
| Cc1[nH]ncc1-c1cnc(-c2nc3sc(N(C)[C@H]4C[C@]5(C)CC[C@](C)(C4)N5)nc3s2)cn1 [Compound 86, N-[(1R,3s,5S)-1,5-dimethyl-8-azabicyclo[3.2.1]octan-3-yl]-N-methyl-5-[5-(5-methyl-1H-pyrazol-4-yl)pyrazin-2-yl][1,3]thiazolo[5,4-d][1,3]thiazol-2-amine] | ≤ 100 |
| C[C@@H]1C[C@@H](N(C)c2nc3sc(-c4ncc(-c5cn[nH]c5)c5cc[nH]c45)nc3s2)CCN1 [Compound 87, N-methyl-N-[(2R,4S)-2-methylpiperidin-4-yl]-5-[4-(1H-pyrazol-4-yl)-1H-pyrrolo[2,3-c]pyridin-7-yl][1,3]thiazolo[5,4-d][1,3]thiazol-2-amine] | ≤ 100 |
| Cc1cn(-c2cnc(-c3nc4sc(N(C)[C@H]5C[C@]6(C)CC[C@](C)(C5)N6)nc4s3)cn2)cn1 [Compound 88, N-[(1R,3s,5S)-1,5-dimethyl-8-azabicyclo[3.2.1]octan-3-yl]-N-methyl-5-[5-(4-methyl-1H-imidazol-1-yl)pyrazin-2-yl][1,3]thiazolo[5,4-d][1,3]thiazol-2-amine] | ≤ 100 |
| CN(c1nc2sc(-c3cnc(-c4cnn(C)c4)cn3)nc2s1)[C@H]1C[C@]2(C)CC[C@](C)(C1)N2 [Compound 89, N-[(1R,3s,5S)-1,5-dimethyl-8-azabicyclo[3.2.1]octan-3-yl]-N-methyl-5-[5-(1-methyl-1H-pyrazol-4-yl)pyrazin-2-yl][1,3]thiazolo[5,4-d][1,3]thiazol-2-amine] | ≤ 100 |
| CCn1cc(-c2cnc(-c3nc4sc(N(C)[C@H]5CCN[C@H](C)C5)nc4s3)c3[nH]ccc23)cn1 [Compound 90, 5-[4-(1-ethyl-1H-pyrazol-4-yl)-1H-pyrrolo[2,3-c]pyridin-7-yl]-N-methyl-N-[(2R,4S)-2-methylpiperidin-4-yl][1,3]thiazolo[5,4-d][1,3]thiazol-2-amine] | ≤ 100 |
| C[C@@H]1C[C@@H](N(C)c2nc3sc(-c4ncc(-c5cnn(C)c5)c5cc[nH]c45)nc3s2)CCN1 [Compound 91, N-methyl-N-[(2R,4S)-2-methylpiperidin-4-yl]-5-[4-(1-methyl-1H-pyrazol-4-yl)-1H-pyrrolo[2,3-c]pyridin-7-yl][1,3]thiazolo[5,4-d][1,3]thiazol-2-amine] | ≤ 100 |
| CN(c1nc2sc(-c3cnc(-c4ccn(C)c(=O)c4)cn3)nc2s1)[C@H]1C[C@]2(C)CC[C@](C)(C1)N2 [Compound 92, 4-[5-(5-{[(1R,3s,5S)-1,5-dimethyl-8-azabicyclo[3.2.1]octan-3-yl](methyl)amino}[1,3]thiazolo[5,4-d][1,3]thiazol-2-yl)pyrazin-2-yl]-1-methylpyridin-2(1H)-one] | ≤ 100 |
| C[C@@H]1C[C@@H](N(C)c2nc3sc(-c4cnc(-c5cn[nH]c5)cn4)nc3s2)CCN1 [Compound 93, N-methyl-N-[(2R,4S)-2-methylpiperidin-4-yl]-5-[5-(1H-pyrazol-4-yl)pyrazin-2-yl][1,3]thiazolo[5,4-d][1,3]thiazol-2-amine] | ≤ 100 |
| CN(c1nc2sc(-c3cnc(-c4cnn(C)c4)cn3)nc2s1)C1CC(C)(C)NC(C)(C)C1 [Compound 94, N-methyl-5-[5-(1-methyl-1H-pyrazol-4-yl)pyrazin-2-yl]-N-(2,2,6,6-tetramethylpiperidin-4-yl)[1,3]thiazolo[5,4-d][1,3]thiazol-2-amine] | ≤ 100 |
| C[C@H]1C[C@@H](N(C)c2nc3sc(-c4ncc(-c5cnn(C)c5)c5cc[nH]c45)nc3s2)CCN1 [Compound 95, N-methyl-N-[(2S,4S)-2-methylpiperidin-4-yl]-5-[4-(1-methyl-1H-pyrazol-4-yl)-1H-pyrrolo[2,3-c]pyridin-7-yl][1,3]thiazolo[5,4-d][1,3]thiazol-2-amine] | ≤ 100 |
| CN1CCCC2(CCN2c2nc3sc(-c4ncc(-c5cn[nH]c5)c5cc[nH]c45)nc3s2)C1 (stereo not shown) [Compound 96, 7-[5-(6-methyl-1,6-diazaspiro[3.5]nonan-1-yl)[1,3]thiazolo[5,4-d][1,3]thiazol-2-yl]-4-(1H-pyrazol-4-yl)-1H-pyrrolo[2,3-c]pyridine] | ≤ 100 |
| C[C@H]1C[C@@H](N(C)c2nc3sc(-c4ccc(-c5cn[nH]c5)c5cc[nH]c45)nc3s2)CCN1 [Compound 97, N-methyl-N-[(2S,4S)-2-methylpiperidin-4-yl]-5-[4-(1H-pyrazol-4-yl)-1H-indol-7-yl][1,3]thiazolo[5,4-d][1,3]thiazol-2-amine] | ≤ 100 |
| C[C@H]1C[C@@H](N(C)c2nc3sc(-c4ncc(-c5cn[nH]c5)c5cc[nH]c45)nc3s2)CCN1 [Compound 98, N-methyl-N-[(2S,4S)-2-methylpiperidin-4-yl]-5-[4-(1H-pyrazol-4-yl)-1H-pyrrolo[2,3-c]pyridin-7-yl][1,3]thiazolo[5,4-d][1,3]thiazol-2-amine] | ≤ 100 |
| C[C@H]1C[C@@H](N(C)c2nc3sc(-c4cnc(-c5cn[nH]c5)cn4)nc3s2)CCN1 [Compound 99, N-methyl-N-[(2S,4S)-2-methylpiperidin-4-yl]-5-[5-(1H-pyrazol-4-yl)pyrazin-2-yl][1,3]thiazolo[5,4-d][1,3]thiazol-2-amine] | 500 to 1000 |
| CN(c1nc2sc(-c3ncc(-c4cn[nH]c4)nn3)nc2s1)C1CC(C)(C)NC(C)(C)C1 [Compound 100, N-methyl-5-[6-(1H-pyrazol-4-yl)-1,2,4-triazin-3-yl]-N-(2,2,6,6-tetramethylpiperidin-4-yl)[1,3]thiazolo[5,4-d][1,3]thiazol-2-amine] | ≤ 100 |
| CN(c1nc2sc(-c3ncc(-c4cn[nH]c4)n4ccnc34)nc2s1)C1CCNCC1 [Compound 101, N-methyl-N-(piperidin-4-yl)-5-[5-(1H-pyrazol-4-yl)imidazo[1,2-a]pyrazin-8-yl][1,3]thiazolo[5,4-d][1,3]thiazol-2-amine] | 1000 to 3000 |
| CN(c1nc2sc(-c3cnc(-n4ccnc4)cn3)nc2s1)C1CC(C)(C)NC(C)(C)C1 [Compound 102, 5-[5-(1H-imidazol-1-yl)pyrazin-2-yl]-N-methyl-N-(2,2,6,6-tetramethylpiperidin-4-yl)[1,3]thiazolo[5,4-d][1,3]thiazol-2-amine] | ≤ 100 |
| CN(c1nc2sc(-c3cnc(-n4ccnc4)cn3)nc2s1)[C@H]1C[C@]2(C)CC[C@](C)(C1)N2 [Compound 103, N-[(1R,3s,5S)-1,5-dimethyl-8-azabicyclo[3.2.1]octan-3-yl]-5-[5-(1H-imidazol-1-yl)pyrazin-2-yl]-N-methyl[1,3]thiazolo[5,4-d][1,3]thiazol-2-amine] | ≤ 100 |
| CN(c1nc2sc(-c3cnc(-n4cccn4)cn3)nc2s1)[C@H]1C[C@]2(C)CC[C@](C)(C1)N2 [Compound 104, N-[(1R,3s,5S)-1,5-dimethyl-8-azabicyclo[3.2.1]octan-3-yl]-N-methyl-5-[5-(1H-pyrazol-1-yl)pyrazin-2-yl][1,3]thiazolo[5,4-d][1,3]thiazol-2-amine] | 500 to 1000 |
